The results in this text go back to patent US8217035B2, “Pyrimidine derivatives used as PI-3-kinase inhibitors” (Novartis AG, priority 2006, dated 2012).

Structures are written as SMILES. Like-named read-outs stand apart in the source and are kept apart here. A value given as a limit tells only on which side of the number the result lay.

In one assay the target is PI3 kinase alpha (Homo sapiens, UniProt P42336). Description: PI3K ATP depletion assay (Biological Method 1, Assay 3; KinaseGlo luminescence). Type of assay: biochemical. The conditions noted are these: ATP depletion assay, read-out: PI3 Kinase Alpha, IC50. In short, it runs like this:
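Compound in DMSO was mixed with 10 nM PI3 kinase and 5 μg/mL phosphatidylinositol, and the reaction was started with 2 μM ATP. It ran to about 50% ATP depletion and was stopped with KinaseGlo.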
A general note: Kinase-Glo reads ATP consumption through a luciferase reaction.

Assay [1] relates to A2780 ovarian cancer cells. The experiment in a line: Cellular proliferation in A2780 cells, Cell Titer Glo (Biological Method 4). The conditions noted are these: Homo sapiens. Type of assay: cell-based. Summed up:
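A2780 cells seeded at 1,000/well in DMEM with 10% FBS, at least 2 h before compound, then exposed 72 h at 37 °C, 5% CO2. Viable cells measured by Cell Titer Glo luminescence; EC50 calculated from duplicate conditions.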
Background: ATP-based viability assays read luminescence as a measure of living cells.

The mark [2] stands for this setting: ovarian cancer cell line A2780, Biological Method 4.

One may read the IC50 as the concentration that gives 50% inhibition. The EC50 is the concentration giving half of the maximal effect. Read a low EC50 as higher potency in that assay.

Chain of PI3 kinase alpha (P42336 whole entry): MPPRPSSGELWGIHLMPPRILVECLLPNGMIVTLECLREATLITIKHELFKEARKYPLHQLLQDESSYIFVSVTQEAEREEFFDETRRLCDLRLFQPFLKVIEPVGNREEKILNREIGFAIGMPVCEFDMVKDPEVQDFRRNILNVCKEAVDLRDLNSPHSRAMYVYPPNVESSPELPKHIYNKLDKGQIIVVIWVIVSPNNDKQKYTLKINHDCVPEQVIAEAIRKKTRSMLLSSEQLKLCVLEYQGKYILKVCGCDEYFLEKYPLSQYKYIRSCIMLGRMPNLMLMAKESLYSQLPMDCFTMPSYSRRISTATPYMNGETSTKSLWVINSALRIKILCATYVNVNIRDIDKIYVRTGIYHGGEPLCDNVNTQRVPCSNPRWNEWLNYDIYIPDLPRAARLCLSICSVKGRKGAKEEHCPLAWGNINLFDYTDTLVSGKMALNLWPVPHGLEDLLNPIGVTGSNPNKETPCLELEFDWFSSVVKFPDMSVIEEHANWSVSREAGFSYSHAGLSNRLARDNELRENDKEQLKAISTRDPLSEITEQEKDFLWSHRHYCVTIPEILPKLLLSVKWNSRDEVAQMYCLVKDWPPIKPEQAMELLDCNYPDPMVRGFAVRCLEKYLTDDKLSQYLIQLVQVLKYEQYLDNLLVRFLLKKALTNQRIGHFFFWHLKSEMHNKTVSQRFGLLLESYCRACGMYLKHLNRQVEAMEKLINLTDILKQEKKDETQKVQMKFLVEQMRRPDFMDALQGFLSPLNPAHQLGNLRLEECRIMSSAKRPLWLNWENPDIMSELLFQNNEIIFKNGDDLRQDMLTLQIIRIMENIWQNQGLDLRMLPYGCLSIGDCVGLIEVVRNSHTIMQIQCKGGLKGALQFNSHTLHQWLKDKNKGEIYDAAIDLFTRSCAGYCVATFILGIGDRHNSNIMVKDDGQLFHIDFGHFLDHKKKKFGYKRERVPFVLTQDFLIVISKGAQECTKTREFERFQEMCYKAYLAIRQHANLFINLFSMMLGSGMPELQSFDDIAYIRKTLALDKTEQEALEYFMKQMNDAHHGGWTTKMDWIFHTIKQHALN
Chain of PI3 kinase alpha (P27986 whole entry partner): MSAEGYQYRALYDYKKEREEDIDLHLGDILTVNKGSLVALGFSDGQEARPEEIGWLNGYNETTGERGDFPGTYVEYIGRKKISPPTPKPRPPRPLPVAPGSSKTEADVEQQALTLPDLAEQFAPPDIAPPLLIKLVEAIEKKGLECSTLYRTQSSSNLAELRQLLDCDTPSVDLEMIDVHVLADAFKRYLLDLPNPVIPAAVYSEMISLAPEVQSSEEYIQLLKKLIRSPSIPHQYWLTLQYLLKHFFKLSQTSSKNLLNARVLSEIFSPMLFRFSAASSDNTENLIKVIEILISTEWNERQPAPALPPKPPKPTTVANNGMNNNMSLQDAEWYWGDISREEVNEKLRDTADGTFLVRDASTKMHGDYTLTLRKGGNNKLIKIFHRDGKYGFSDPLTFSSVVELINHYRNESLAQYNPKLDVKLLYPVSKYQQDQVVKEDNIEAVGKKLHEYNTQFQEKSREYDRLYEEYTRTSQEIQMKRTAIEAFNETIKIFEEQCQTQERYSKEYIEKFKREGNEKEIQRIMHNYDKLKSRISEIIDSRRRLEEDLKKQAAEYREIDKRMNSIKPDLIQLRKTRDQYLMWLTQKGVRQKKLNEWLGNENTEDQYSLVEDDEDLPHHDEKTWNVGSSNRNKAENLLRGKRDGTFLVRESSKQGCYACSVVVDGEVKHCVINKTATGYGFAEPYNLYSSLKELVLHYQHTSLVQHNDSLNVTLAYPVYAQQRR

In the case of `CN(C)C(=O)C1CN(c2cc(-c3cnc(N)cc3C(F)(F)F)nc(N3CCOCC3)n2)CCO1` (centres unmarked) [Compound 326], the concentration for half-maximal inhibition (IC50) at PI3 kinase alpha (Biological Method 1) is below 1000 nM. In assay [1] (setting [2]), this compound came in with an EC50 below 25000 nM.
On the same counts, the results for `C[C@@H]1CN(c2cc(-c3cnc(N)cc3C(F)(F)F)nc(N3CCOCC3)n2)C[C@H](C)O1` [Compound 327] are below 1000 nM and below 10000 nM.
On to `Nc1cc(Cl)c(-c2cc(OC3CCOCC3)nc(N3CCOCC3)n2)cn1` [Compound 328], for which the IC50 at PI3 kinase alpha (Biological Method 1) was below 1000 nM. This compound came in with an EC50 in assay [1] (setting [2]) below 25000 nM.
The corresponding values for `Nc1cc(C(F)(F)F)c(-c2cc(N3CCOC(C(=O)NC4CCOCC4)C3)nc(N3CCOCC3)n2)cn1` (centres unmarked) [Compound 329] are below 1000 nM and below 25000 nM.
With `CC(C)NC(=O)C1CN(c2cc(-c3cnc(N)cc3C(F)(F)F)nc(N3CCOCC3)n2)CCO1` (centres unmarked) [Compound 330], the IC50 on PI3 kinase alpha (Biological Method 1) is below 1000 nM. In assay [1] (setting [2]), the half-maximal effective concentration (EC50) was below 25000 nM.
On the same counts, the results for `Nc1cc(C(F)(F)F)c(-c2cc(N3CCS(=O)(=O)CC3)nc(N3CCOCC3)n2)cn1` [Compound 331] are below 1000 nM and below 25000 nM.
The corresponding values for `Nc1cc(C(F)(F)F)c(-c2cc(N3CC[C@H](F)C3)nc(N3CCOCC3)n2)cn1` [Compound 332] are below 1000 nM and below 1000 nM.
The corresponding values for `Nc1cc(C(F)(F)F)c(-c2cc(N3CCOC(C(=O)O)C3)nc(N3CCOCC3)n2)cn1` (centres unmarked) [Compound 333] are below 1000 nM and below 25000 nM.
For `Nc1cc(C(F)(F)F)c(-c2cc(N3CCOC(c4ccc(C(F)(F)F)cc4)C3)nc(N3CCOCC3)n2)cn1` (centres unmarked) [Compound 334], on PI3 kinase alpha (Biological Method 1), the IC50 was below 1000 nM. Moreover, the EC50 in assay [1] (setting [2]) is below 10000 nM.
With `Nc1cc(C(F)(F)F)c(-c2cc(N3CCOC(c4ccc(F)cc4)C3)nc(N3CCOCC3)n2)cn1` (centres unmarked) [Compound 335], on PI3 kinase alpha (Biological Method 1), the IC50 was below 1000 nM. In addition, in assay [1] (setting [2]), the EC50 is below 10000 nM.
On the same counts, the results for `Nc1cc(C(F)(F)F)c(-c2cc(N3CCOC(c4ccc(Cl)cc4)C3)nc(N3CCOCC3)n2)cn1` (centres unmarked) [Compound 336] are below 1000 nM and below 10000 nM.
The corresponding values for `Nc1cc(C(F)(F)F)c(-c2cc(N3CCOC(c4ccccc4Cl)C3)nc(N3CCOCC3)n2)cn1` (centres unmarked) [Compound 337] are below 1000 nM and below 25000 nM.
On to `Nc1cc(C(F)(F)F)c(-c2cc(N3CCOC(c4cccnc4)C3)nc(N3CCOCC3)n2)cn1` (centres unmarked) [Compound 338], for which the IC50 on PI3 kinase alpha (Biological Method 1) was below 1000 nM. In addition, the EC50 in assay [1] (setting [2]) is below 10000 nM.
The corresponding values for `N#Cc1cc(N)ncc1-c1cc(N2CCOC(c3ccccc3)C2)nc(N2CCOCC2)n1` (centres unmarked) [Compound 341] are below 1000 nM and below 10000 nM.
On the same counts, the results for `Nc1cc(Cl)c(-c2cc(N3CCOC(c4ccccc4)C3)nc(N3CCOCC3)n2)cn1` (centres unmarked) [Compound 342] are below 1000 nM and below 10000 nM.
The corresponding values for `Nc1ncc(-c2cc(N3CCOC(c4ccccc4)C3)nc(N3CCOCC3)n2)c(C(F)(F)F)n1` (centres unmarked) [Compound 343] are below 1000 nM and below 25000 nM.
As for `Nc1cc(C(F)(F)F)c(-c2cc(N3CCOC(c4ccccc4)C3)nc(N3CCOCC3)n2)cn1` (centres unmarked) [Compound 344], the IC50 on PI3 kinase alpha (Biological Method 1) is below 1000 nM. Moreover, the EC50 in assay [1] (setting [2]) was below 10000 nM.
On the same counts, the results for `Nc1ccc(-c2cc(-n3ncc4cccc(N)c43)nc(N3CCOCC3)n2)cn1` [Compound 345] are below 1000 nM and below 10000 nM.
The corresponding values for `Nc1ccc(-c2cc(Nc3cccc4[nH]ncc34)nc(N3CCOCC3)n2)cn1` [Compound 347] are below 1000 nM and below 10000 nM.
On the same counts, the results for `NC(=O)c1ccnc(Nc2cc(-c3ccc(N)nc3)nc(N3CCOCC3)n2)c1` [Compound 348] are below 1000 nM and below 25000 nM.
As for `Nc1ccc(-c2cc(Nc3cc(Cl)ccn3)nc(N3CCOCC3)n2)cn1` [Compound 349], the IC50 on PI3 kinase alpha (Biological Method 1) was below 1000 nM. For the same compound, the EC50 in assay [1] (setting [2]) was below 25000 nM.
The corresponding values for `Nc1ccc(-c2cc(Nc3cc(C(F)(F)F)ccn3)nc(N3CCOCC3)n2)cn1` [Compound 350] are below 1000 nM and below 25000 nM.
On the same counts, the results for `Nc1ccc(-c2cc(Nc3cc(F)ccn3)nc(N3CCOCC3)n2)cn1` [Compound 351] are below 1000 nM and below 25000 nM.
With `NC(=O)c1ccccc1Nc1cc(-c2ccc(N)nc2)nc(N2CCOCC2)n1` [Compound 352], the IC50 on PI3 kinase alpha (Biological Method 1) was below 1000 nM. The EC50 in assay [1] (setting [2]) was below 10000 nM.
On the same counts, the results for `CC(=O)N1CCc2ccc(Nc3cc(-c4ccc(N)nc4)nc(N4CCOCC4)n3)cc21` [Compound 356] are below 1000 nM and below 10000 nM.
On the same counts, the results for `Nc1ccc(-c2cc(Nc3ccc(-c4cnco4)cc3)nc(N3CCOCC3)n2)cn1` [Compound 357] are below 1000 nM and below 25000 nM.
The corresponding values for `Nc1ccc(-c2cc(Nc3ccc(S(=O)(=O)C(F)(F)F)cc3)nc(N3CCOCC3)n2)cn1` [Compound 358] are below 1000 nM and below 10000 nM.
For the compound `CC(=O)c1ccc(Nc2cc(-c3ccc(N)nc3)nc(N3CCOCC3)n2)cc1` [Compound 359], the IC50 on PI3 kinase alpha (Biological Method 1) was below 1000 nM. This compound came in with an EC50 in assay [1] (setting [2]) below 1000 nM.
On to `CC(=O)Nc1ccc(Nc2cc(-c3ccc(N)nc3)nc(N3CCOCC3)n2)cc1` [Compound 360], for which, on PI3 kinase alpha (Biological Method 1), the IC50 is below 1000 nM. Moreover, the EC50 in assay [1] (setting [2]) was below 10000 nM.
The corresponding values for `CS(=O)(=O)Nc1cccc(Nc2cc(-c3ccc(N)nc3)nc(N3CCOCC3)n2)c1` [Compound 361] are below 1000 nM and below 10000 nM.
The corresponding values for `Nc1ccc(-c2cc(Nc3cccc(S(N)(=O)=O)c3)nc(N3CCOCC3)n2)cn1` [Compound 362] are below 1000 nM and below 10000 nM.
The corresponding values for `CC(=O)Nc1cccc(Nc2cc(-c3ccc(N)nc3)nc(N3CCOCC3)n2)c1` [Compound 363] are below 1000 nM and below 10000 nM.
`Nc1ccc(-c2cc(Nc3cnc4ccc(O)cc4c3)nc(N3CCOCC3)n2)cn1` [Compound 367]: the concentration for half-maximal inhibition (IC50) at PI3 kinase alpha (Biological Method 1) was below 1000 nM. The EC50 in assay [1] (setting [2]) was below 10000 nM.
Regarding `CN(c1cc(-c2ccc(N)nc2)nc(N2CCOCC2)n1)C1CCOCC1` [Compound 368], the IC50 on PI3 kinase alpha (Biological Method 1) is below 1000 nM. In addition, in assay [1] (setting [2]), the EC50 is below 10000 nM.
The corresponding values for `Nc1ccc(-c2cc(Cl)nc(N3CCOCC3)n2)cn1` [Compound 369] are below 1000 nM and below 25000 nM.
As to `Nc1ccc(-c2cc(N3CCOC(c4ccccc4)C3)nc(N3CCOCC3)n2)cn1` (centres unmarked) [Compound 371], on PI3 kinase alpha (Biological Method 1), the 50% inhibitory concentration (IC50) was below 1000 nM. In assay [1] (setting [2]), this compound had an EC50 below 10000 nM.
The corresponding values for `Nc1ccc(-c2cc(Nc3ccc4nccnc4c3)nc(N3CCOCC3)n2)cn1` [Compound 377] are below 1000 nM and below 10000 nM.
On the same counts, the results for `Nc1ccc(-c2cc(Nc3cccnc3)nc(N3CCOCC3)n2)cn1` [Compound 378] are below 1000 nM and below 10000 nM.
`Nc1ccc(-c2cc(Nc3ccnc4cc(C(F)(F)F)ccc34)nc(N3CCOCC3)n2)cn1` [Compound 380]: the IC50 at PI3 kinase alpha (Biological Method 1) was below 1000 nM. The concentration for a half-maximal effect (EC50) in assay [1] (setting [2]) was below 10000 nM.
The corresponding values for `Nc1ccc(-c2cc(Nc3ccnc4c(C(F)(F)F)cccc34)nc(N3CCOCC3)n2)cn1` [Compound 383] are below 1000 nM and below 10000 nM.
On the same counts, the results for `Nc1ccc(-c2cc(Nc3ccc4c(c3)OCC(=O)N4)nc(N3CCOCC3)n2)cn1` [Compound 384] are below 1000 nM and below 10000 nM.
Turning to `Nc1ccc(-c2cc(Nc3ccc4c(c3)OCCO4)nc(N3CCOCC3)n2)cn1` [Compound 386], the IC50 on PI3 kinase alpha (Biological Method 1) is below 1000 nM. In addition, in assay [1] (setting [2]), the EC50 was below 10000 nM.
Consider `Nc1ccc(-c2cc(N3CCOc4ccccc43)nc(N3CCOCC3)n2)cn1` [Compound 387], for which the IC50 at PI3 kinase alpha (Biological Method 1) is below 1000 nM. Besides, in assay [1] (setting [2]), the EC50 was below 10000 nM.
On the same counts, the results for `Nc1ncc(-c2cc(Nc3cnccc3C(F)(F)F)nc(N3CCOCC3)n2)cn1` [Compound 390] are below 1000 nM and below 10000 nM.
With `Nc1ncc(-c2cc(N3CCNC(=O)C3)nc(N3CCOCC3)n2)cn1` [Compound 392], the IC50 on PI3 kinase alpha (Biological Method 1) is below 1000 nM. For the same compound, the EC50 in assay [1] (setting [2]) was below 10000 nM.
The corresponding values for `Nc1ncc(-c2cc(Nc3ccccc3C(F)(F)F)nc(N3CCOCC3)n2)cn1` [Compound 393] are below 1000 nM and below 10000 nM.
For the compound `Nc1ncc(-c2cc(N3CCCC3)nc(N3CCOCC3)n2)cn1` [Compound 399], the IC50 at PI3 kinase alpha is below 1000 nM. Besides, in assay [1] (ovarian cancer cell line A2780), the EC50 is below 10000 nM.
On the same counts, the results for `CN(C)c1cc(-c2cnc(N)nc2)nc(N2CCOCC2)n1` [Compound 400] are below 1000 nM and below 10000 nM.
On the same counts, the results for `CNc1cc(-c2cnc(N)nc2)nc(N2CCOCC2)n1` [Compound 401] are below 1000 nM and below 25000 nM.
On the same counts, the results for `Nc1ncc(-c2cc(NC3CC3)nc(N3CCOCC3)n2)cn1` [Compound 402] are below 1000 nM and below 10000 nM.
As for `Nc1ncc(-c2cc(N3CCc4ccccc4C3)nc(N3CCOCC3)n2)cn1` [Compound 403], the IC50 on PI3 kinase alpha was below 1000 nM. Further, the EC50 in assay [1] (ovarian cancer cell line A2780) is below 10000 nM.
In the case of `CN(c1cc(-c2cnc(N)nc2)nc(N2CCOCC2)n1)C1CCCCC1` [Compound 404], at PI3 kinase alpha, the IC50 is below 1000 nM. In addition, the EC50 in assay [1] (ovarian cancer cell line A2780) was below 10000 nM.
On the same counts, the results for `Nc1ncc(-c2cc(NC3CCCCC3)nc(N3CCOCC3)n2)cn1` [Compound 405] are below 1000 nM and below 10000 nM.
The corresponding values for `Nc1ncc(-c2cc(NCC3CCCCC3)nc(N3CCOCC3)n2)cn1` [Compound 406] are below 1000 nM and below 25000 nM.
On the same counts, the results for `Nc1ncc(-c2cc(N3CCCC3Cc3ccccc3)nc(N3CCOCC3)n2)cn1` (centres unmarked) [Compound 407] are below 1000 nM and below 10000 nM.
